In US12215389B2, “Compositions for detecting epigenetic modifications” (EXACT SCIENCES CORPORATION, priority 2007, dated 2025):

Tested on: methylated gene promoters in plasma DNA
Assay: Real-time MSP on plasma DNA
Design: species or system human
Settings: for % Specificity (all 59 controls), plasma set 1: plasma training set 1; for % Sensitivity adenomas plasma set 2: increased plasma equivalent of DNA per real-time MSP assay / % Specificity (all 89 controls), plasma set 2: increased plasma equivalent of DNA per real-time MSP assay: plasma training set 2
Protocol: 10 ml of blood was obtained per individual using EDTA Vacutainer™ tubes. Individuals with no suspicious findings, adenomas or carcinomas based on colonoscopy were enrolled in the present study. Within 4 hrs from the blood drawing, the plasma fraction was separated from the cell fraction by centrifugation at 1500 g for 15 min (4° C.). The plasma was transferred to new tubes and once again centrifuged (1500 g, 15 min, 4° C.), after which the supernatant was transferred to new tubes and stored at −80° C. until further use. Samples were shipped on dry ice.
DNA isolation from plasma samples (1.2 to 6 ml) was performed using an upscaled phenol-chloroform DNA isolation method using the 15 ml of Heavy Phase lock Gel tubes (PLG tubes) (Eppendorf, cat #0032 005.152) or alternatively the ChargeSwitch® gDNA 1 ml serum kit from Invitrogen (cat #CS11040).
Plasma samples were thawed and 1/10 volume of 10× buffer (240 mM EDTA (pH=8.0), 750 mM NaCl), 1/10 volume of 10% SDS and 5 μl of Proteinase K (20 mg/ml stock solution) per 1 ml of sample (e.g. 15 μl for 3 ml of sample) was added to each plasma sample. This mixture was incubated overnight at 48° C. at constant shaking (200 RPM).
Subsequently the PLG tube was centrifuged at 2500 RCF for 3 min, sample mixture and approximately the same volume of phenol/chloroform (Invitrogen, cat #15593049) were added to it. This solution was briefly vortexed, mixed for 10 min using a tube rocker at room temperature and centrifuged for 5 min at 2500 RCF. In case the retrieved sample volume was ≤4 ml, an equal volume of phenol/chloroform was added. The upper aqueous layer was phenol/chloroform-treated for a second time.
DNA was precipated from the upper aqueous layer by adding 5 μl glycogen, 1/10 volume of 7.5 M Ammonium Acetate and 2-2.5 volumes of cold (−20° C.) 100% ethanol. Tubes were gently inverted and incubated at −20° C. for at least 1 h, followed by a centrifugation step at 17000 RCF for 30 min (4° C.). Ethanol was carefully removed by pipetting. Pellets were washed with 2 ml freshly prepared 70% ethanol, vortexed gently and submitted to a centrifugation step at 17000 RCF for 15 min at 4° C. After careful removal of the remaining ethanol, pellets were air dried and resuspended in 45 μl of LoTE pH 8.0. The isolated DNA is stored at −80° C. until further processing.
The complete content of DNA isolated in above procedure was subjected to sodium bisulfite treatment (BT) using the EZ-96 DNA Methylation kit from Zymo Research (Cat #D5003) performed on a pipetting robot (Tecan Freedom EVOII, Roma, Liha, Mca, Te-Vacs). Briefly, 45 μl of plasma DNA sample was mixed with 5 μl of M-Dilution Buffer (provided in kit) and incubated at 37° C. for 15 min shaking at 1100 RPM. This mixture was further incubated with 100 μl of diluted CT conversion reagent (provided in kit) shaking at 70° C. for 3 hours (protected from light). Subsequently the modified DNA was desalted and desulfonated according to manufacturer's instructions and eluted in either 40 μl or 20 μl of Tris-HCl 1 mM pH8.0, depending on the applied concentration procedure. The eluted material was stored at −80° C. until further processing.
2.4 μl of the modified DNA was added to a PCR mix (total volume 12 μl) containing home-made buffer solution (final concentrations are summarized: 16.6 mM (NH4)2SO4, 67 mM Tris (pH 8.8), 6.7 mM MgCl2, 10 mM β-mercaptoethanol), dNTPs (5 mM; Amersham Biosciences cat #27-2035-02), methylation specific forward primer (6 ng), methylation specific reverse primer (18 ng), molecular beacon (0.16 μM) and Jumpstart DNA Taq polymerase (0.4 units; Sigma Cat #D9307).
A standard curve was included (9.6×10^5—9.6 copies) to determine copy numbers of unknown samples by interpolation of their Ct values to the standard curve.
DNA was isolated following the upscaled phenol-chloroform procedure; subsequently the whole DNA sample was modified as described above.

| Substance | % Specificity (all 59 controls), plasma set 1 [%] | % Sensitivity adenomas plasma set 2: increased plasma equivalent of DNA per real-time MSP assay [%] | % Specificity (all 89 controls), plasma set 2: increased plasma equivalent of DNA per real-time MSP assay [%] |
| --- | --- | --- | --- |
| SFRP1 (DNA TGTAGTTTTCGGAGTTAGTGTCGCGC; listed as DNA, chemistry not given here) | 98 | 2 | 96 |
| GATA5 (DNA AGTTCGTTTTTAGGTTAGTTTTCGGC; listed as DNA, chemistry not given here) | 97 | 6 | 99 |
